Assay results reported in publication PMC10175918 (Communications Biology, 2023).
Where two headings read alike, the source gives them in different places.

Legend:
Test in all cases: TGFα-shedding assay-based GPCR screening with chimeric Gα subunit proteins
Assay type in all cases: cell-based
348 GPCRs [1] = molecular target: T1, 348 GPCRs (Homo sapiens, UniProt P25106)
T1 construct: expressed in transfected cells; host or cells: HEK293A

348 GPCRs [2] = molecular target: T2, 348 GPCRs (Homo sapiens, UniProt Q14831); settings: 10µM, Favipiravir 100μM
T2 construct: expressed in transfected cells; host or cells: HEK293A

348 GPCRs [3] = molecular target: 348 GPCRs (Homo sapiens, UniProt P21453); settings: 10µM, Favipiravir 100μM
348 GPCRs [4] = molecular target: T3, 348 GPCRs (Homo sapiens, UniProt Q5UAW9); settings: 10µM, Favipiravir 100μM
T3 construct: expressed in transfected cells; host or cells: HEK293A

348 GPCRs [5] = molecular target: T4, 348 GPCRs (Homo sapiens, UniProt P11229)
T4 sequence (P11229 1-460): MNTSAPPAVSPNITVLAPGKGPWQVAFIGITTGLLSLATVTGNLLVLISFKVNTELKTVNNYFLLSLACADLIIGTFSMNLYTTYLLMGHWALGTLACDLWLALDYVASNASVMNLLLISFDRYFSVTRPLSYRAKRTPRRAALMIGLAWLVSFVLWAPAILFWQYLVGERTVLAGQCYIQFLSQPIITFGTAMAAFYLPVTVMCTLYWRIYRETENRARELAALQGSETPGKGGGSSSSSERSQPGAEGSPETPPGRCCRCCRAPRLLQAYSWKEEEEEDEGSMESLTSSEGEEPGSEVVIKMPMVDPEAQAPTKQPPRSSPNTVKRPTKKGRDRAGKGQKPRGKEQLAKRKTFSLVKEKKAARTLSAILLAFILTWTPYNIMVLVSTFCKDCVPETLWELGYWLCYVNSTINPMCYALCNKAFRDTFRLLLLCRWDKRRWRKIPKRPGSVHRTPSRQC

348 GPCRs [6] = molecular target: T5, 348 GPCRs (Homo sapiens, UniProt O95977); settings: 10µM, Favipiravir 100μM
T5 sequence (O95977 1-384): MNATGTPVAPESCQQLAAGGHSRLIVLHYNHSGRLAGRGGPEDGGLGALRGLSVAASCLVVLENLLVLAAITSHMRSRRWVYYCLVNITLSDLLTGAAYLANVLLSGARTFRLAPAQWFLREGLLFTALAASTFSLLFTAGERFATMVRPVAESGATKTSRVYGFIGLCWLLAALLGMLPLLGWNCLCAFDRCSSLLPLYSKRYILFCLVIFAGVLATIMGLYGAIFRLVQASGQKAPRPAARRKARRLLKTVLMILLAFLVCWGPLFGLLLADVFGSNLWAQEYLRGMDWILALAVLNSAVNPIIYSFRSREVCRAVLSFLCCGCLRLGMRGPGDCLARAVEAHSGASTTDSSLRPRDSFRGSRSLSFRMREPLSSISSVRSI

348 GPCRs [7] = molecular target: T6, 348 GPCRs (Homo sapiens, UniProt P48960)
T6 construct: expressed in transfected cells; host or cells: HEK293A
T6 sequence (P48960 21-835): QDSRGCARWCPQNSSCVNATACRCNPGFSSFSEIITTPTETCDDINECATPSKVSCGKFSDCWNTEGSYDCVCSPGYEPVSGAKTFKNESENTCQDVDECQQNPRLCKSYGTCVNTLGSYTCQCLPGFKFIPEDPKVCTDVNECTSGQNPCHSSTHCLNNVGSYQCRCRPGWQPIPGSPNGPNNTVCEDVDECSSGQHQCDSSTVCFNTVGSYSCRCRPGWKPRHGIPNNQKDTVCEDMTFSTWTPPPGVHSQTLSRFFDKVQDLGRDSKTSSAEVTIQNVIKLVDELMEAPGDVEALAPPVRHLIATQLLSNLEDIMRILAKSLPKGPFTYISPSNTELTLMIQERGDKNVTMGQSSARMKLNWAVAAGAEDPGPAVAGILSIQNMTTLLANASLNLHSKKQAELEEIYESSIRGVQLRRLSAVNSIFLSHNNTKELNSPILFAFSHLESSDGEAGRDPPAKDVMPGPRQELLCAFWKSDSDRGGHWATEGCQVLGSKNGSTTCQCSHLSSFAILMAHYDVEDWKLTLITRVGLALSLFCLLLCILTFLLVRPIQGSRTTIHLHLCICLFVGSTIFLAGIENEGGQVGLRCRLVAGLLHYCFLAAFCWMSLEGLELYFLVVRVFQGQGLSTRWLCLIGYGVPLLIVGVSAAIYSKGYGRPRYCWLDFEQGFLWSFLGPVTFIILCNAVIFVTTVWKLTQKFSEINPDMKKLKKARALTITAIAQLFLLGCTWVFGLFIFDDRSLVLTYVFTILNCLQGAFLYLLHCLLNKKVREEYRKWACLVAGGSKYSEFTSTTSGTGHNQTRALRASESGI

348 GPCRs [8] = molecular target: 348 GPCRs (Homo sapiens, UniProt Q9H228); settings: 10µM, Favipiravir 100μM
[9] = GPCR CXCR7 (chemokine (C-X-C motif) receptor 7), read-out: % GPCR activation compared to TPA
[10] = GRM7 (glutamate receptor, metabotropic 7), read-out: % GPCR activation compared to TPA
[11] = S1PR1 (sphingosine-1-phosphate receptor 1), read-out: % GPCR activation compared to TPA
[12] = GPR157 (G Protein-Coupled Receptor 157), read-out: % GPCR activation compared to TPA
[13] = GPCR M1 (Muscarinic acetylcholine receptor M1), read-out: % GPCR activation compared to TPA
[14] = S1PR4 (sphingosine-1-phosphate receptor 4), read-out: % GPCR activation compared to TPA
[15] = GPCR CD97 (adhesion G protein-coupled receptor E5), read-out: % GPCR activation compared to TPA
[16] = S1PR5 (sphingosine-1-phosphate receptor 5), read-out: % GPCR activation compared to TPA
[17] = read-out: % GPCR activation compared to TPA, GPCR CXCR7 (chemokine (C-X-C motif) receptor 7)
[18] = read-out: % GPCR activation compared to TPA, GRM7 (glutamate receptor, metabotropic 7)
[19] = read-out: % GPCR activation compared to TPA, S1PR1 (sphingosine-1-phosphate receptor 1)
[20] = read-out: % GPCR activation compared to TPA, GPR157 (G Protein-Coupled Receptor 157)
[21] = read-out: % GPCR activation compared to TPA, GPCR M1 (Muscarinic acetylcholine receptor M1)
[22] = read-out: % GPCR activation compared to TPA, S1PR4 (sphingosine-1-phosphate receptor 4)
[23] = read-out: % GPCR activation compared to TPA, GPCR CD97 (adhesion G protein-coupled receptor E5)
[24] = read-out: % GPCR activation compared to TPA, S1PR5 (sphingosine-1-phosphate receptor 5)

T2 sequence (Q14831 35-915): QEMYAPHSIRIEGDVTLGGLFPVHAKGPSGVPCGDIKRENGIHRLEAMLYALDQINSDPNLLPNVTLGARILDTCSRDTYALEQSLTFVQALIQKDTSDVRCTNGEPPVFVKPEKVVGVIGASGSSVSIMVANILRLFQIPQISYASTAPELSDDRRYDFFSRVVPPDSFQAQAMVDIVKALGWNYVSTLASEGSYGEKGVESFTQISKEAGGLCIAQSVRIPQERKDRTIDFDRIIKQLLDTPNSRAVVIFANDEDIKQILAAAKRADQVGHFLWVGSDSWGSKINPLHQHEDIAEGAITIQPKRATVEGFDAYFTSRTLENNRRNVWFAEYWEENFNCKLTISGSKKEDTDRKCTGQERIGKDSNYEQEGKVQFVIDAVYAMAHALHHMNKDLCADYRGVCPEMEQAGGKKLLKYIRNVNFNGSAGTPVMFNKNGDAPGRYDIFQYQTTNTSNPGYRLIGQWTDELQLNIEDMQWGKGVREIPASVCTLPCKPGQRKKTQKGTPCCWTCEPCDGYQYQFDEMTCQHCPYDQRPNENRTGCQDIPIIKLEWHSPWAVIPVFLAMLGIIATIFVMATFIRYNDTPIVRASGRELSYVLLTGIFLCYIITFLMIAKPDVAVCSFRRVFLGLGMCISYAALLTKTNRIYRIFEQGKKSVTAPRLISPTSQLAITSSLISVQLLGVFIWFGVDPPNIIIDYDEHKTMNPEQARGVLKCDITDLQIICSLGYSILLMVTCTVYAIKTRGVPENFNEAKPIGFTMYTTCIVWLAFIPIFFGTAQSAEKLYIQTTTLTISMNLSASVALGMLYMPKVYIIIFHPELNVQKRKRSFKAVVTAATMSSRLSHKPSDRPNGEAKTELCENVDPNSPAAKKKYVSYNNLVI
T1 sequence (P25106 whole entry): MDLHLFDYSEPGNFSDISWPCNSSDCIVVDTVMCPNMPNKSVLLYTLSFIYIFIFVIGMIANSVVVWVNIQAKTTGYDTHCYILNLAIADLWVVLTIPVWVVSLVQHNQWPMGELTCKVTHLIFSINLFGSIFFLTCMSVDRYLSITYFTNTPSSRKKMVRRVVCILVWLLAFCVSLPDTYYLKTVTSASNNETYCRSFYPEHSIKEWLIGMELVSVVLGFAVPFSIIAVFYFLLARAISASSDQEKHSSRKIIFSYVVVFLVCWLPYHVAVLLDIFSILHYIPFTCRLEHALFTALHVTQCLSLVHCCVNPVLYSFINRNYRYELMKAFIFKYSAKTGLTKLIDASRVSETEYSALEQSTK
T3 sequence (Q5UAW9 whole entry): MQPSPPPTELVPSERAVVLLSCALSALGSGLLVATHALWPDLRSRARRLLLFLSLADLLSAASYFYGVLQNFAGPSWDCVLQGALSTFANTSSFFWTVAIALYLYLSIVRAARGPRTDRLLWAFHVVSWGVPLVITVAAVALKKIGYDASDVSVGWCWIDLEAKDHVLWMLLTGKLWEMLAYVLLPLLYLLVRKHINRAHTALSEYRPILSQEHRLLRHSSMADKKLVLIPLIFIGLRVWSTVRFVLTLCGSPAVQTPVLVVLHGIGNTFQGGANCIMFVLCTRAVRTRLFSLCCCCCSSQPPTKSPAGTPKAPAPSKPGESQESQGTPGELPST
Chain of 348 GPCRs (Homo sapiens, UniProt P21453) (P21453 whole entry): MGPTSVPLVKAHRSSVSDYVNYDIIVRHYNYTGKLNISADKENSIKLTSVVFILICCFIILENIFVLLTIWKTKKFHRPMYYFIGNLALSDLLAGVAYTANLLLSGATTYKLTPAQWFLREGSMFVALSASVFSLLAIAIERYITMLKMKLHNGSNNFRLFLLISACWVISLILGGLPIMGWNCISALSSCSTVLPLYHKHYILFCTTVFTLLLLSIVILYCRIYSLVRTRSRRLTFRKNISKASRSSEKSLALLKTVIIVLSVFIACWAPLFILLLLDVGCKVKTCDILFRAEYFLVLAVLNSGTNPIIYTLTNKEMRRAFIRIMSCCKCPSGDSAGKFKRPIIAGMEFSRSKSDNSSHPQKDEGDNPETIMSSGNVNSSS
Chain of 348 GPCRs (Homo sapiens, UniProt Q9H228) (Q9H228 whole entry): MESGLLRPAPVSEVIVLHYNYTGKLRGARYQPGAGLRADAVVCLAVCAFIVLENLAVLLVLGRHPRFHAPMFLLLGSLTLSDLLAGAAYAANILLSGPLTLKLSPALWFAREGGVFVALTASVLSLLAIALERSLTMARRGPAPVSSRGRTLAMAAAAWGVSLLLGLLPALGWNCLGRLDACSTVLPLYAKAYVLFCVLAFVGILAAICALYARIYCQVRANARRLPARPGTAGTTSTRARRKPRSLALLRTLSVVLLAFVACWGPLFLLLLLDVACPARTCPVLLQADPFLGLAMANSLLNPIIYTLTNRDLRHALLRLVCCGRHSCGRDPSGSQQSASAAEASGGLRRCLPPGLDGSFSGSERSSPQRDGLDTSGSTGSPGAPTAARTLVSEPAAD

| SMILES | activation at 10 µM (348 GPCRs [1]; [9]) [%] | activation at 10 µM (348 GPCRs [2]; [10]) [%] | activation at 10 µM (348 GPCRs [3]; [11]) [%] | activation at 10 µM (348 GPCRs [4]; [12]) [%] | activation at 10 µM (348 GPCRs [5]; [13]) [%] | activation at 10 µM (348 GPCRs [6]; [14]) [%] | activation at 10 µM (348 GPCRs [7]; [15]) [%] | activation at 10 µM (348 GPCRs [8]; [16]) [%] | activation at 10 µM (348 GPCRs [1]; [17]) [%] | activation at 10 µM (348 GPCRs [2]; [18]) [%] | activation at 10 µM (348 GPCRs [3]; [19]) [%] | activation at 10 µM (348 GPCRs [4]; [20]) [%] | activation at 10 µM (348 GPCRs [5]; [21]) [%] | activation at 10 µM (348 GPCRs [6]; [22]) [%] | activation at 10 µM (348 GPCRs [7]; [23]) [%] | activation at 10 µM (348 GPCRs [8]; [24]) [%] | activation at 100 µM (348 GPCRs [1]; GPCR CXCR7 (chemokine (C-X-C motif) receptor 7), 100μM, read-out: % GPCR activation compared to TPA) [%] | activation at 100 µM (348 GPCRs [5]; GPCR M1 (Muscarinic acetylcholine receptor M1), 100μM, read-out: % GPCR activation compared to TPA) [%] | activation at 100 µM (348 GPCRs [7]; GPCR CD97 (adhesion G protein-coupled receptor E5), 100μM, read-out: % GPCR activation compared to TPA) [%] |
| --- | --- | --- | --- | --- | --- | --- | --- | --- | --- | --- | --- | --- | --- | --- | --- | --- | --- | --- | --- |
| N#C[C@@]1(c2ccc3c(N)ncnn23)O[C@H](CO)[C@@H](O)[C@H]1O [GS441524] | 1.43 | 1.06 | -1.43 | -1.23 | 0.618 | -3.24 | -3.9 | -0.465 |  |  |  |  |  |  |  |  |  |  |  |
| CCC(CC)COC(=O)[C@H](C)N[P@](=O)(OC[C@H]1O[C@@](C#N)(c2ccc3c(N)ncnn23)[C@H](O)[C@@H]1O)Oc1ccccc1 [remdesivir] |  |  |  |  |  |  |  |  | 0.898 | -0.738 | -1.92 | 1.04 | 3.01 | -2.69 | 1.2 | -1.2 |  |  |  |
| CC(C)OC(=O)[C@H](C)N[P@](=O)(OC[C@H]1O[C@@H](n2ccc(=O)[nH]c2=O)[C@](C)(F)[C@@H]1O)Oc1ccccc1 [sofosbuvir] |  |  |  |  |  |  |  |  | -0.832 | 10.4 | 0.0873 | 3.51 | -0.631 | -2.24 | -1.88 | -0.326 |  |  |  |
| NC(=O)c1nc(F)cnc1O [favipiravir, 6-fluoro-3-hydroxy-2-pyrazinecarboxamide] |  | -0.143 | -0.836 | -0.889 |  | -3.38 |  | 1.49 |  |  |  |  |  |  |  |  | -1.9 | 0.788 | -3.34 |
| CC(C)C(=O)OC[C@H]1O[C@@H](n2ccc(NO)nc2=O)[C@H](O)[C@@H]1O [molnupiravir] | -1.56 | -1.87 | -2.19 | -0.773 | -0.856 | -2.08 | -0.34 | -0.945 |  |  |  |  |  |  |  |  |  |  |  |
